Measurements published in patent US20230414762A1, “PROSTATE-SPECIFIC MEMBRANE ANTIGEN (PSMA)-TARGETED PRODRUG FOR SELECTIVE KILLING OF CELLS […]” (The Johns Hopkins University, priority 2020, published 2023).
pIC50: −log10 of the molar value. Non-standard residues stand in square brackets, D forms with d. Residues, ends and D or L forms follow the SMILES beside them. *: point of attachment. Dolaproine = CO[C@@H]([C@@H]1CCCN1)[C@@H](C)C(=O)O; Dil = CC[C@H](C)[C@H](NC)[C@@H](CC(=O)O)OC; X2 = C[C@@H](N*)[C@@H](O)c1ccccc1; NMeV = CN[C@H](C(=O)O)C(C)C

Experiments:
PSMA+ PC3 PIP cells = assay: In vitro cytotoxicity (XTT cell proliferation assay), PSMA+ PC3 PIP cells; assay type: cell-based, human
PSMA− PC3 flu cells = assay: In vitro cytotoxicity (XTT cell proliferation assay), PSMA- PC3 flu cells; assay type: cell-based, human
[1] = In vivo toxicity in healthy mice (weight, survival, histopathology); design: species or system C57BL/6 mice; conditions: healthy C57BL/6 mice, MMAE (free drug) 80 μg/kg IP daily for 30 days
Description: The potential toxicity of SBPD-1 was evaluated in immunocompetent animals. MMAE (80 μg/kg), SBPD-1 (160 μg/kg), and 5% DMSO were administered to healthy C57BL/6 mice (n=5). Animals were monitored for 80 days after initiation of administration. […] Lung, liver, kidneys, salivary and lacrimal glands were removed from all tested animals at Day 80 after initiation of SBPD-1 treatment. […] Peripheral blood also was obtained from mice injected with vehicle, SBPD-1, and healthy untreated animals, and prepared serum for chemistry studies (n=5).
Male C57BL/6 mice were purchased from Jackson Laboratory. Ten-week-old mice were injected with the indicated doses of MMAE (formulated in 5% DMSO), SBPD-1 (formulated in saline) or 5% DMSO intraperitoneally (daily for 30 days, n=5). Animals were monitored daily for weight changes and other abnormalities for 80 days. Animals were euthanized in a CO2 chamber at day 80, and blood, lung, liver, kidney, salivary gland, and lacrimal gland were collected for complete blood counts, blood chemistry, and histopathological analyses. Complete blood counts including white blood cells (WBC), red blood cells (RBC), hemoglobin (HGB), hematocrit (HCT), mean corpuscular volume (MCV), mean corpuscular hemoglobin (MCH), mean corpuscular hemoglobin concentration (MCHC), and platelet (PLT) were measured using scil Vet ABC™ Hematology Analyzer (scil animal care company, Gurnee, IL). Blood chemistry parameters including blood urea nitrogen (BUN), glucose (GLU), Alkaline Phosphatase (ALP), total protein (T-Pro), Alanine aminotransferase (ALT) and Creatinine (Cre) were measured with Spotchem EZ chemistry analyzer (Arkray USA, Edina, MN). Hematoxylin and eosin slides were generated for five organs and examined by certified veterinary pathologist.

CC[C@H](C)[C@@H]([C@@H](CC(=O)N1CCC[C@H]1[C@H](OC)[C@@H](C)C(=O)N[C@H](C)[C@@H](O)c1ccccc1)OC)N(C)C(=O)[C@@H](NC(=O)[C@@H](NC)C(C)C)C(C)C [MMAE, monomethyl auristatin E] (H-[NMeV]V[Dil][Dolaproine]-X2)
pIC50 (PSMA+ PC3 PIP cells): 10.41 | pIC50 (PSMA− PC3 flu cells): 10.40 | toxicity (weight loss, euthanasia) [1]: severe toxicity
